The source of these data is US11440822B2, “Methods and uses of dissolved organic material fractions for binding metal ions” (priority 2016, dated 2022).

The subject of this data set is Scenedesmus obliquus. Description: Toxicity of Cd to Scenedesmus obliquus cultures. To be noted: Cd(NO3)2. It counts as cell-based. On the procedure: Laboratory grown cultures of Scenedesmus obliquus were obtained from the Canadian Phycological Culture Center (CPCC) in Waterloo, Ontario. The cells were grown using a bold basal media (BBM) at standard light regimes (16:8 h light to dark) fixed light intensity of 90-100 μmol photons […] and fixed temperature of 21° C. constantly aerated in a growth chamber.
Four algal cultures were grown in the presence of varying levels of Cd: control (0 μL^−1 Cd); EC20 (19.5 μL^−1Cd); EC30 (46.4 μL^−1 Cd) and EC40 (78.8 μL^−1 Cd) starting at 1 million cells per mL for Replicate 1 and 2 million cells per mL for Replicate 2. The cells were harvested in early stationary phase for further analysis.

As to `O=[N+]([O-])[O-].O=[N+]([O-])[O-].[Cd+2]` [Cd, Cd(NO3)2], the “toxicity of Cd, EC20” value was determined as 19.5 μL^−1Cd; the “toxicity of Cd, EC30” value was found to be 46.4 μL^−1 Cd; the “toxicity of Cd, EC40” value was 78.8 μL^−1 Cd.
